In US8993574B2, “Pyrrole antifungal agents” (F2G Ltd, priority 2008, dated 2015):
≈ marks a conversion by molar mass, not a printed value.

Key:
Format in all cases: cell-based
[1] = system: Aspergillus fumigatus AF210; test: MIC, RPMI medium; details: Aspergillus fumigatus, AF210, MIC banded into grades, read-out: MIC grade, A. fumigatus 210
In short: (§1)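 Minimum inhibitory concentrations were determined in glucose-supplemented (2%) RPMI buffered to pH 7.0 with 0.135 M MOPS. Wells held 1−2×10^4 cfu/mL and compound from 50 to 0.05 mg/L, incubated 24-48 h at 35° C, with >80% growth reduction by OD 485 nm as endpoint.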

[2] = system: Aspergillus flavus; test: MIC, RPMI medium; details: Aspergillus flavus, MIC banded into grades, read-out: MIC grade, A. flavus
In short: as §1

[3] = system: Aspergillus terreus AT4; test: MIC, RPMI medium; details: Aspergillus terreus, AT4, MIC banded into grades, read-out: MIC grade, A. terreus
In short: as §1

[4] = system: Aspergillus fumigatus AF293; test: MIC, RPMI medium; details: Aspergillus fumigatus, AF293, MIC banded into grades, read-out: MIC grade, A. fumigatus
In short: as §1

[5] = system: Aspergillus terreus AT49; test: MIC, RPMI medium; details: Aspergillus terreus, AT49, MIC banded into grades, read-out: MIC grade, A. terreus 49
In short: as §1

[6] = system: Aspergillus niger; test: MIC, RPMI medium; details: Aspergillus niger, MIC banded into grades, read-out: MIC grade, A. niger
In short: as §1

[7] = system: Aspergillus fumigatus AF210; test: MIC, YAG medium; details: Aspergillus fumigatus, 24 h at 35° C, MIC banded into grades, read-out: MIC grade, A. fumigatus 210
In short: (§2)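 Spores from 5-day Sabouraud agar cultures were suspended in YAG medium (1% glucose, 1% ammonium chloride, 0.5% yeast extract) at final inocula of 1−2×10^4 cfu/mL against doubling dilutions of compound (50-0.05 mg/L; 0.5-0.0005 mg/L on repeat). Plates were incubated 24 h at 35° C. MIC was the lowest concentration giving >70% growth inhibition by OD485 versus drug-free control.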

[8] = system: Aspergillus flavus; test: MIC, YAG medium; details: Aspergillus flavus, 24 h, 24 h at 35° C, MIC banded into grades, read-out: MIC grade, A. flavus
In short: as §2

[9] = system: Aspergillus terreus AT4; test: MIC, YAG medium; details: Aspergillus terreus, 24 h at 35° C, MIC banded into grades, read-out: MIC grade, A. terreus
In short: as §2

[10] = system: Aspergillus fumigatus AF293; test: MIC, YAG medium; details: Aspergillus fumigatus, 24 h at 35° C, MIC banded into grades, read-out: MIC grade, A. fumigatus
In short: as §2

[11] = system: Aspergillus terreus AT49; test: MIC, YAG medium; details: Aspergillus terreus, 24 h at 35° C, MIC banded into grades, read-out: MIC grade, A. terreus 49
In short: as §2

[12] = system: Aspergillus niger; test: MIC, YAG medium; details: Aspergillus niger, 24 h at 35° C, MIC banded into grades, read-out: MIC grade, A. niger
In short: as §2

| MIC [1] | MIC [2] | MIC [3] | MIC [4] | MIC [5] | MIC [6] | MIC [7] | MIC [8] | MIC [9] | MIC [10] | MIC [11] | MIC [12] | SMILES |
| --- | --- | --- | --- | --- | --- | --- | --- | --- | --- | --- | --- | --- |
| < 1 µg/mL | < 1 µg/mL | < 1 µg/mL | < 1 µg/mL | < 1 µg/mL | < 1 µg/mL | < 1 µg/mL | < 1 µg/mL | < 1 µg/mL | < 1 µg/mL | < 1 µg/mL | < 1 µg/mL | Cc1cc(-c2ccccc2)c(C(=O)C(=O)Nc2ccc(-c3ncco3)cc2)n1C [Example 147, 2-(1,5-Dimethyl-3-phenyl-1H-pyrrol-2-yl)-N-(4-oxazol-2-yl-phenyl)-2-oxo-acetamide] |
| < 1 µg/mL | < 1 µg/mL | < 1 µg/mL | < 1 µg/mL | < 1 µg/mL | < 1 µg/mL | < 1 µg/mL | < 1 µg/mL | < 1 µg/mL | < 1 µg/mL | < 1 µg/mL | < 1 µg/mL | Cc1cc(C)nc(N2CCN(c3ccc(NC(=O)C(=O)c4c(-c5ccccc5)cc5n4CCC5)cc3)CC2)c1 [Example 6, N-{4-[4-(4,6-Dimethyl-pyridin-2-yl)-piperazin-1-yl]-phenyl}-2-oxo-2-(2-phenyl-6,7-dihydro-5H-pyrrolizin-3-yl)-acetamide] |
| < 1 µg/mL | < 1 µg/mL | < 1 µg/mL | < 1 µg/mL | < 1 µg/mL | < 1 µg/mL | < 1 µg/mL | < 1 µg/mL | < 1 µg/mL | < 1 µg/mL | < 1 µg/mL | < 1 µg/mL | Cc1cc(-c2ccccc2)c(C(=O)C(=O)Nc2ccc(N3CCCCC3)c(F)c2)n1C [Example 115, 2-(1,5-Dimethyl-3-phenyl-1H-pyrrol-2-yl)-N-(3-fluoro-4-piperidin-1-yl-phenyl)-2-oxo-acetamide] |

More lines, now with the values behind:

| SMILES | MIC [1] | MIC [2] | MIC [3] | MIC [4] | MIC [5] | MIC [6] | MIC [7] | MIC [8] | MIC [9] | MIC [10] | MIC [11] | MIC [12] |
| --- | --- | --- | --- | --- | --- | --- | --- | --- | --- | --- | --- | --- |
| COCCn1cc(-c2cccc(Cl)c2)cc1C(=O)C(=O)Nc1ccc(N2CCN(c3cc(C)cc(C)n3)CC2)cc1 [Example 71, 2-[4-(3-Chloro-phenyl)-1-(2-methoxy-ethyl)-1H-pyrrol-2-yl]-N-{4-[4-(4,6-dimethyl-pyridin-2-yl)-piperazin-1-yl]-phenyl}-2-oxo-acetamide] | > 10 µg/mL | > 10 µg/mL | > 10 µg/mL | > 10 µg/mL | > 10 µg/mL | > 10 µg/mL | > 10 µg/mL | > 10 µg/mL | > 10 µg/mL | > 10 µg/mL | 1 to 10 µg/mL (≈ 1.75 to 17.5 µM) | > 10 µg/mL |
| COCCn1cc(-c2ccccc2Cl)cc1C(=O)C(=O)Nc1ccc(N2CCN(c3cc(C)cc(C)n3)CC2)cc1 [Example 58, 2-[4-(2-Chloro-phenyl)-1-(2-methoxy-ethyl)-1H-pyrrol-2-yl]-N-{4-[4-(4,6-dimethyl-pyridin-2-yl)-piperazin-1-yl]-phenyl}-2-oxo-acetamide] | > 10 µg/mL | > 10 µg/mL | > 10 µg/mL | > 10 µg/mL | > 10 µg/mL | > 10 µg/mL | 1 to 10 µg/mL (≈ 1.75 to 17.5 µM) | 1 to 10 µg/mL (≈ 1.75 to 17.5 µM) | 1 to 10 µg/mL (≈ 1.75 to 17.5 µM) | 1 to 10 µg/mL (≈ 1.75 to 17.5 µM) | 1 to 10 µg/mL (≈ 1.75 to 17.5 µM) | > 10 µg/mL |
| COCCn1c(C)cc(-c2ccccc2)c1C(=O)C(=O)Nc1cccc2cnccc12 [Example 30, N-Isoquinolin-5-yl-2-[1-(2-methoxy-ethyl)-5-methyl-3-phenyl-1H-pyrrol-2-yl]-2-oxo-acetamide] | > 10 µg/mL | > 10 µg/mL | > 10 µg/mL | > 10 µg/mL | > 10 µg/mL | > 10 µg/mL | 1 to 10 µg/mL (≈ 2.42 to 24.2 µM) | 1 to 10 µg/mL (≈ 2.42 to 24.2 µM) | 1 to 10 µg/mL (≈ 2.42 to 24.2 µM) | 1 to 10 µg/mL (≈ 2.42 to 24.2 µM) | 1 to 10 µg/mL (≈ 2.42 to 24.2 µM) | > 10 µg/mL |
